ChEMBL document CHEMBL1201862, “PubChem BioAssay data set” (2004)
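Five compound concentrations were applied to cells in 96-well plates for 48 hours; endpoints were derived by simple linear interpolation of the resulting dose-response curve. GI50 marks 50% less growth.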 Active and inactive are the calls of the source. Cut-off read from the data, not from the text of the source: active = GI50 up to about 1.1 µM and inactive = higher.

Legend:
Test in all cases: NCI tumour cell line growth inhibition, 48 h
[1] = test system: 786-0
[2] = test system: A498
[3] = test system: A549
[4] = test system: ACHN
[5] = test system: BT-549
[6] = test system: CAKI-1
[7] = test system: COLO 205
[8] = test system: DU-145
[9] = test system: EKVX
[10] = test system: HCC 2998
[11] = test system: HCT-116
[12] = test system: HCT-15
[13] = test system: HOP-62
[14] = test system: HOP-92
[15] = test system: HT-29
[16] = test system: Hs-578T
[17] = test system: IGROV-1
[18] = test system: K562
[19] = test system: KM12
[20] = test system: LOX IMVI
[21] = test system: M14
[22] = test system: MCF7
[23] = test system: MDA-MB-231
[24] = test system: MDA-MB-435
[25] = test system: MDA-N
[26] = test system: Malme-3M
[27] = test system: NCI-H226
[28] = test system: NCI-H23
[29] = test system: NCI-H460
[30] = test system: NCI-H522
[31] = test system: NCI/ADR-RES
[32] = test system: OVCAR-4
[33] = test system: OVCAR-5
[34] = test system: OVCAR-8
[35] = test system: PC-3
[36] = test system: RPMI-8226
[37] = test system: RXF 393
[38] = test system: SF-268
[39] = test system: SF-295
[40] = test system: SK-MEL-28
[41] = test system: SK-MEL-2
[42] = test system: SK-MEL-5
[43] = test system: SK-OV-3
[44] = test system: SN12C
[45] = test system: SNB-19
[46] = test system: SNB-75
[47] = test system: SR
[48] = test system: SW-620
[49] = test system: T47D
[50] = test system: TK-10
[51] = test system: U-251
[52] = test system: UACC-257
[53] = test system: UACC-62
[54] = test system: CCRF-CEM
[55] = test system: HL-60
[56] = test system: MOLT-4
[57] = test system: OVCAR-3
[58] = test system: SF-539
[59] = test system: UO-31

Measured: GI50

Cc1nc2ccccc2nc1N1CCCC1
inactive: [1] > 100 µM | [2] > 100 µM | [3] > 100 µM | [4] > 100 µM | [5] > 100 µM | [6] > 100 µM | [7] > 100 µM | [8] > 100 µM | [9] 34.2 µM | [10] > 100 µM | [11] > 100 µM | [13] > 100 µM | [14] > 100 µM | [15] > 100 µM | [16] > 100 µM | [17] > 100 µM | [18] > 100 µM | [19] > 100 µM | [20] > 100 µM | [21] > 100 µM | [22] > 100 µM | [23] > 100 µM | [24] > 100 µM | [25] > 100 µM | [26] > 100 µM | [27] > 100 µM | [28] > 100 µM | [29] > 100 µM | [30] > 100 µM | [31] > 100 µM | [32] > 100 µM | [33] > 100 µM | [34] > 100 µM | [35] > 100 µM | [36] > 100 µM | [37] > 100 µM | [38] > 100 µM | [39] > 100 µM | [40] > 100 µM | [41] > 100 µM | [42] > 100 µM | [43] > 100 µM | [44] > 100 µM | [45] > 100 µM | [46] 68.2 µM | [47] > 100 µM | [48] > 100 µM | [49] > 100 µM | [50] > 100 µM | [51] > 100 µM | [52] > 100 µM | [53] > 100 µM
> 100 µM: [12]

CS(=O)(=O)Nc1ccc2ccccc2c1
> 100 µM: [12]
inactive: [1] > 100 µM | [2] > 100 µM | [3] > 100 µM | [4] > 100 µM | [5] 30.4 µM | [6] > 100 µM | [54] > 100 µM | [7] > 100 µM | [8] > 100 µM | [9] 57.3 µM | [10] > 100 µM | [11] > 100 µM | [55] > 100 µM | [13] 95.7 µM | [14] 87.7 µM | [15] > 100 µM | [16] > 100 µM | [17] > 100 µM | [18] > 100 µM | [19] > 100 µM | [20] > 100 µM | [21] > 100 µM | [22] > 100 µM | [23] > 100 µM | [24] > 100 µM | [25] > 100 µM | [56] > 100 µM | [26] > 100 µM | [27] 79.4 µM | [28] > 100 µM | [29] > 100 µM | [30] > 100 µM | [31] > 100 µM | [57] > 100 µM | [32] > 100 µM | [33] > 100 µM | [34] > 100 µM | [35] > 100 µM | [36] > 100 µM | [38] > 100 µM | [39] > 100 µM | [58] > 100 µM | [40] > 100 µM | [41] > 100 µM | [42] > 100 µM | [43] > 100 µM | [44] > 100 µM | [45] > 100 µM | [46] > 100 µM | [47] > 100 µM | [48] > 100 µM | [49] > 100 µM | [50] > 100 µM | [51] > 100 µM | [52] > 100 µM | [53] > 100 µM | [59] 21.1 µM

N=c1n(C(=O)N2CCCC2)c2cc(Cl)ccc2n1C1=NCCN1
inactive: [1] 54 µM | [2] > 100 µM | [3] > 100 µM | [4] 43.7 µM | [5] 60.1 µM | [6] 43.2 µM | [54] 41.7 µM | [7] > 100 µM | [8] 50 µM | [9] > 100 µM | [10] > 100 µM | [11] 55.5 µM | [55] 38.8 µM | [13] > 100 µM | [14] 15.2 µM | [15] 75.7 µM | [16] > 100 µM | [17] 73.3 µM | [18] 40.6 µM | [19] > 100 µM | [20] 28.3 µM | [21] 59.6 µM | [22] 35.8 µM | [23] 67.9 µM | [24] 52 µM | [25] 61.8 µM | [56] 41.7 µM | [26] 99.8 µM | [27] > 100 µM | [29] > 100 µM | [30] 38.6 µM | [31] 93.5 µM | [57] 80.5 µM | [32] > 100 µM | [33] > 100 µM | [34] 88.3 µM | [35] 86.9 µM | [36] 15.7 µM | [37] 82.4 µM | [38] > 100 µM | [39] > 100 µM | [58] 55.2 µM | [40] 95.3 µM | [41] 33.1 µM | [42] 83 µM | [43] > 100 µM | [44] 70.5 µM | [45] > 100 µM | [47] 38.2 µM | [48] 52.6 µM | [49] 24.2 µM | [50] 86.5 µM | [51] 83.2 µM | [52] > 100 µM | [53] > 100 µM
40.6 µM: [12]
